# In patent publication US6197225A, “Chromene compound” (Tokuyama Corporation, priority 1997, dated 2001):
# Experiment: Photochromic properties of cast polymer (2 mm thick) under xenon lamp irradiation for 120 seconds
# Assay type: physicochemical
# Conditions: single chromene compound 0.04% by weight in polymer, 20° C.; Table 5
# Experimental: 0.04% by weight of the chromene compound obtained in Example 1 was added to 70 parts of 4G, 15 parts of 3G, 10 parts of GMA, 5 parts of HEMA and 1 part of perbutyl ND, and was mixed together to a sufficient degree. The mixture solution was poured into a mold constituted by a glass plate and a gasket of an ethylene/vinyl acetate copolymer, and was cast-polymerized. By using an air furnace, the polymerization was conducted in a manner that the temperature was gradually raised from 30° C. to 90° C. over a period of 18 hours, and was held at 90° C. for 2 hours. After the polymerization, the polymer was taken out from the glass mold.
# By using a xenon lamp, L-2480 (300 W) SHL-100, manufactured by Hamamatsu Photonics Co., the obtained polymer (2 mm thick) was irradiated with a beam of an intensity of 365 nm=2.4 mW/cm^2 and 245 nm=24 μW/cm^2 on the surface of the polymer for 120 seconds through an aero-mass filter (manufactured by Corning Co.) at 20° C.±1° C. to develop color and to measure the photochromic properties which were expressed in the following manner.
# 1 Maximum absorption wavelength (λmax): λmax of the polymer after it has developed color was found by using a spectrophotometer (instantaneous multi-channel photo-detector, MCPD1000) manufactured by Otsuka Denshi Kogyo Co.
# 2 Initial color ( ε(0)): Absorbency of the polymer in a non-irradiated state at a wavelength same as the maximum absorption wavelength of when it is irradiated with light.
# 3 Color density (-)=ε(120)-ε(0). ε(120): Absorbency of the polymer at a maximum absorption wavelength after it was irradiated for 120 seconds under the above-mentioned conditions.
# 4 Color-developing sensitivity (-/min.)=Saturated color density/xenon irradiation time.
# Rate of increase in the color density per a unit time until the color density is saturated.
# 5 Color fading rate [t1/2 (min.)]=time required until the absorbency of the polymer drops down to one-half of [ε(120)-ε(0)] after irradiated for 120 seconds.
# (§1) Photochromic polymers were prepared in the same manner as in Example 42 but using the chromene compounds obtained in Examples 2 to 41, and their maximum absorption wavelengths, color densities, fading rates, changes in the coloring degrees and durabilitys were measured.
# (§2) For the purpose of comparison, furthermore, the compounds represented by the following formulas (a), (b), (c), (d), (e) and (f) were measured for their maximum absorption wavelengths, color densities, fading rates, changes in the coloring degrees and durabilitys.
# (§3) The procedure was carried out in the same manner as in Example 42 but using 100 parts of AC1 and 133 parts of BC1, the sum of the amounts of AC1 and BC1 being 0.04% by weight. The obtained photochromic polymer was measured for its maximum absorption wavelength, initial color, color density, color-developing sensitivity, fading rate, durability and change in the coloring degree.
# (§4) The procedure was carried out in the same manner as in Example 83 but using the known chromene compounds shown in Table 6 instead of the chromene compound used in Example 83. […]
SMILES,Maximum absorption wavelength λmax [nm],Fading rate t1/2 [min]
CC(C)(C)c1cc2ccccc2c2c1C=CC1(CC3CCC1C3)O2 (stereo not drawn) [Compound 18],440,1.3
CC(C)(C)c1cc2ccccc2c2c1C=CC1(O2)C2(Cl)CCC1(Cl)CC2 (stereo not drawn) [Compound 20],440,1.3
CC(C)(C)c1cc2ccccc2c2c1C=CC1(O2)C2(Cl)CCCC1(Cl)CCC2 (stereo not drawn) [Compound 22],444,1.4
CCC(C)c1cc2ccccc2c2c1C=CC1(O2)C2CCCC1CCC2 (stereo not drawn) [Compound 23],450,1.0
CC(C)(C)c1cc2ccccc2c2c1C=CC1(O2)C2CC3CC(C2)CC1C3 (stereo not drawn) [Compound 24],445,1.8

# The next lines start with results.
Maximum absorption wavelength λmax [nm],SMILES,Fading rate t1/2 [min]
486,COc1ccc(C2(c3ccc(OC(F)(F)F)cc3)C=Cc3c(C(C)C)cc4ccccc4c3O2)cc1 (stereo not drawn) [Compound 15],4.8
470,CC(C)c1cc2ccccc2c2c1C=CC(c1ccccc1)(c1ccc(OC(F)(F)F)cc1)O2 (stereo not drawn) [Compound 16],5.2
452,CC(C)(C)c1cc2ccccc2c2c1C=CC(c1ccccc1)(c1ccc(OC(F)(F)F)cc1)O2 (stereo not drawn) [Compound 17],3.2
448,CC(C)c1cc2ccccc2c2c1C=CC1(O2)C2CCC1CC2 (stereo not drawn) [Compound 19],1.0
449,CC(C)c1cc2ccccc2c2c1C=CC1(O2)C2CCCC1CCC2 (stereo not drawn) [Compound 21],1.0
454,CC(C)c1cc2ccccc2c2c1C=CC1(O2)C2CC3CC(C2)CC1C3 (stereo not drawn) [Compound 25],2.0
504,COc1ccc(C2(c3ccc(OC)cc3)C=Cc3c(C)cc4ccccc4c3O2)cc1 [Compound 26],6.0

# Same assay, conditions: single chromene compound 0.04% by weight in polymer, 120 seconds, 20° C.; Table 5
row,SMILES,Color density ε(120)-ε(0)
1,CC(C)(C)c1cc2ccccc2c2c1C=CC1(CC3CCC1C3)O2 (stereo not drawn) [Compound 18],0.4
2,CC(C)(C)c1cc2ccccc2c2c1C=CC1(O2)C2(Cl)CCC1(Cl)CC2 (stereo not drawn) [Compound 20],0.4
3,CC(C)(C)c1cc2ccccc2c2c1C=CC1(O2)C2(Cl)CCCC1(Cl)CCC2 (stereo not drawn) [Compound 22],0.5
4,CCC(C)c1cc2ccccc2c2c1C=CC1(O2)C2CCCC1CCC2 (stereo not drawn) [Compound 23],0.5
5,CC(C)(C)c1cc2ccccc2c2c1C=CC1(O2)C2CC3CC(C2)CC1C3 (stereo not drawn) [Compound 24],0.6

# Other lines, results leading:
row,Color density ε(120)-ε(0),SMILES
1,0.9,COc1ccc(C2(c3ccc(OC(F)(F)F)cc3)C=Cc3c(C(C)C)cc4ccccc4c3O2)cc1 (stereo not drawn) [Compound 15]
2,0.9,CC(C)c1cc2ccccc2c2c1C=CC(c1ccccc1)(c1ccc(OC(F)(F)F)cc1)O2 (stereo not drawn) [Compound 16]
3,0.7,CC(C)(C)c1cc2ccccc2c2c1C=CC(c1ccccc1)(c1ccc(OC(F)(F)F)cc1)O2 (stereo not drawn) [Compound 17]
4,0.5,CC(C)c1cc2ccccc2c2c1C=CC1(O2)C2CCC1CC2 (stereo not drawn) [Compound 19]
5,0.5,CC(C)c1cc2ccccc2c2c1C=CC1(O2)C2CCCC1CCC2 (stereo not drawn) [Compound 21]
6,0.7,CC(C)c1cc2ccccc2c2c1C=CC1(O2)C2CC3CC(C2)CC1C3 (stereo not drawn) [Compound 25]
7,1.2,COc1ccc(C2(c3ccc(OC)cc3)C=Cc3c(C)cc4ccccc4c3O2)cc1 [Compound 26]

# Experiment: Aging promotion testing: sunlight 30 min / fading one hour cycles, 10 days (durability, coloring degree)
# Assay type: physicochemical
# Conditions: YI(10)-YI(0), single chromene compound in polymer, 10 days aging; Table 5
# Experimental: In order to promote the aging, furthermore, the following testing was conducted. That is, the obtained photochromic polymer was irradiated with sunlight for 30 minutes to develop color, and its color was permitted to fade for one hour in the light of a fluorescent lamp. This cycle was repeated three times a day for a total of 10 days.
# The photochromic properties before and after aged were evaluated by evaluating the color densities before and after aged. The initial color density (T0) and the color density (T30) ten days after the aging promotion testing were measured, and the durability was expressed as described below.
# Furthermore, the coloring degrees of before developing color were measured before and after aged by using a color difference meter (SM-4) manufactured by Suga Shikenki Co.
# 7 Coloring degree before being aged=YI(0).
# 8 Change in the coloring degree (ΔYI)=YI(10)-YI(0)
# YI(10): coloring degree after aged
# as §1, §2, §3, §4
# The obtained polymer (2 mm thick) was caused to develop color outdoors, and tones of the developed color were observed by eyes 30 seconds and 15 minutes after it was brought to the outdoors, and uniformity in the step of developing color was evaluated. […] Furthermore, the aging promoting testing was conducted in the same manner as in Example 42 to find a coloring degree (YI(0)) before aged and a change in the coloring degree (ΔY).
row,SMILES,Change in the coloring degree ΔYI
1,CC(C)(C)c1cc2ccccc2c2c1C=CC1(CC3CCC1C3)O2 (stereo not drawn) [Compound 18],1.8
2,CC(C)(C)c1cc2ccccc2c2c1C=CC1(O2)C2(Cl)CCC1(Cl)CC2 (stereo not drawn) [Compound 20],4.0
3,CC(C)(C)c1cc2ccccc2c2c1C=CC1(O2)C2(Cl)CCCC1(Cl)CCC2 (stereo not drawn) [Compound 22],3.0
4,CCC(C)c1cc2ccccc2c2c1C=CC1(O2)C2CCCC1CCC2 (stereo not drawn) [Compound 23],2.0
5,CC(C)(C)c1cc2ccccc2c2c1C=CC1(O2)C2CC3CC(C2)CC1C3 (stereo not drawn) [Compound 24],5.0

# More lines, now with the values ahead:
row,Change in the coloring degree ΔYI,SMILES
1,1.2,COc1ccc(C2(c3ccc(OC(F)(F)F)cc3)C=Cc3c(C(C)C)cc4ccccc4c3O2)cc1 (stereo not drawn) [Compound 15]
2,1.2,CC(C)c1cc2ccccc2c2c1C=CC(c1ccccc1)(c1ccc(OC(F)(F)F)cc1)O2 (stereo not drawn) [Compound 16]
3,0.7,CC(C)(C)c1cc2ccccc2c2c1C=CC(c1ccccc1)(c1ccc(OC(F)(F)F)cc1)O2 (stereo not drawn) [Compound 17]
4,5.5,CC(C)c1cc2ccccc2c2c1C=CC1(O2)C2CCC1CC2 (stereo not drawn) [Compound 19]
5,2.0,CC(C)c1cc2ccccc2c2c1C=CC1(O2)C2CCCC1CCC2 (stereo not drawn) [Compound 21]
6,2.2,CC(C)c1cc2ccccc2c2c1C=CC1(O2)C2CC3CC(C2)CC1C3 (stereo not drawn) [Compound 25]
7,2.3,COc1ccc(C2(c3ccc(OC)cc3)C=Cc3c(C)cc4ccccc4c3O2)cc1 [Compound 26]

# Same assay, conditions: single chromene compound in polymer, 10 days aging; Table 5
row,SMILES,Light resistance (durability) [%]
1,CC(C)(C)c1cc2ccccc2c2c1C=CC1(CC3CCC1C3)O2 (stereo not drawn) [Compound 18],95
2,CC(C)(C)c1cc2ccccc2c2c1C=CC1(O2)C2(Cl)CCC1(Cl)CC2 (stereo not drawn) [Compound 20],80
3,CC(C)(C)c1cc2ccccc2c2c1C=CC1(O2)C2(Cl)CCCC1(Cl)CCC2 (stereo not drawn) [Compound 22],80
4,CCC(C)c1cc2ccccc2c2c1C=CC1(O2)C2CCCC1CCC2 (stereo not drawn) [Compound 23],92
5,CC(C)(C)c1cc2ccccc2c2c1C=CC1(O2)C2CC3CC(C2)CC1C3 (stereo not drawn) [Compound 24],95

# Continued, values first:
row,Light resistance (durability) [%],SMILES
1,96,COc1ccc(C2(c3ccc(OC(F)(F)F)cc3)C=Cc3c(C(C)C)cc4ccccc4c3O2)cc1 (stereo not drawn) [Compound 15]
2,99,CC(C)c1cc2ccccc2c2c1C=CC(c1ccccc1)(c1ccc(OC(F)(F)F)cc1)O2 (stereo not drawn) [Compound 16]
3,98,CC(C)(C)c1cc2ccccc2c2c1C=CC(c1ccccc1)(c1ccc(OC(F)(F)F)cc1)O2 (stereo not drawn) [Compound 17]
4,92,CC(C)c1cc2ccccc2c2c1C=CC1(O2)C2CCC1CC2 (stereo not drawn) [Compound 19]
5,97,CC(C)c1cc2ccccc2c2c1C=CC1(O2)C2CCCC1CCC2 (stereo not drawn) [Compound 21]
6,92,CC(C)c1cc2ccccc2c2c1C=CC1(O2)C2CC3CC(C2)CC1C3 (stereo not drawn) [Compound 25]
7,99,COc1ccc(C2(c3ccc(OC)cc3)C=Cc3c(C)cc4ccccc4c3O2)cc1 [Compound 26]
